Source: PubChem BioAssay (NCI)
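Results reflect a 48-hour exposure of cells in 96-well plates to compound at five concentrations. The concentration for full growth arrest is given as TGI.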

Experiments:
Experiment in all cases: NCI anticancer screen, dose series, 48 h
[1] = tested on: U251 CNS
[2] = tested on: KM20L2 colon
[3] = tested on: K-562 leukemia
[4] = tested on: DMS 114 small cell lung
[5] = tested on: MOLT-4 leukemia
[6] = tested on: SK-MEL-28 melanoma
[7] = tested on: HOP-18 NSCLC
[8] = tested on: SF-539 CNS
[9] = tested on: UO-31 renal
[10] = tested on: NCI-H23 lung
[11] = tested on: SW-620 colon
[12] = tested on: HCC-2998 colon
[13] = tested on: M19-MEL melanoma
[14] = tested on: LXFL 529 NSCLC
[15] = tested on: SK-MEL-5 melanoma
[16] = tested on: KM12 colon
[17] = tested on: SK-OV-3 ovarian
[18] = tested on: TK-10 renal
[19] = tested on: HCT-116 colon
[20] = tested on: ACHN renal
[21] = tested on: SF-268 CNS
[22] = tested on: CCRF-CEM leukemia
[23] = tested on: SR leukemia
[24] = tested on: OVCAR-3 ovarian
[25] = tested on: XF 498 CNS
[26] = tested on: UACC-257 melanoma
[27] = tested on: MALME-3M melanoma
[28] = tested on: NCI-H522 lung
[29] = tested on: HOP-62 NSCLC
[30] = tested on: A549 NSCLC
[31] = tested on: SNB-19 CNS
[32] = tested on: 786-0 renal
[33] = tested on: OVCAR-4 ovarian
[34] = tested on: RPMI-8226 leukemia
[35] = tested on: HCT-15 colon
[36] = tested on: SF-295 CNS
[37] = tested on: RXF-631 renal
[38] = tested on: NCI-H226 lung
[39] = tested on: COLO 205 colon
[40] = tested on: HL-60(TB) leukemia
[41] = tested on: HT29 colon
[42] = tested on: DLD-1 colon
[43] = tested on: SK-MEL-2 melanoma
[44] = tested on: SNB-78 CNS
[45] = tested on: UACC-62 melanoma
[46] = tested on: OVCAR-5 ovarian
[47] = tested on: HOP-92 NSCLC
[48] = tested on: M14 melanoma
[49] = tested on: SNB-75 CNS
[50] = tested on: IGROV1 ovarian
[51] = tested on: OVCAR-8 ovarian
[52] = tested on: LOX IMVI melanoma
[53] = tested on: CAKI-1 renal
[54] = tested on: EKVX NSCLC
[55] = tested on: NCI-H460 lung
[56] = tested on: A498 renal
[57] = tested on: RXF 393 renal
[58] = tested on: SN12C renal
[59] = tested on: DMS 273 small cell lung

Measured: TGI

COC(=O)c1cc(O)ccc1NC(=O)c1ccc(O)cc1
not listed: [56] | [57] | [58] | [59]
> 100 µM: all other assays above

COC(=O)C1CCc2nnc(-c3cccnc3)n21 (configuration not stated)
not listed: [10] | [25] | [36] | [41] | [46] | [47] | [52]
> 100 µM: all other assays above
